# Test results taken from US20250263424A1, “KRAS INHIBITORS” (Bristol-Myers Squibb Company, priority 2022, published 2025).
# Biological target: Recombinant GMPPNP-loaded KRAS G12C (KRAS-G12C(ON), active form) (Homo sapiens, UniProt P01116, G12C)
# Test: KRAS G12C RAF Disruption Assay (HTRF)
# Type: biochemical
# Details: GMPPNP-loaded KRAS G12C 5 nM, GST-RAF1 RBD 9 nM, values given in μM, read-out: KRASG12C RAF Disruption Assay (IC50)
# In short: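 GMPPNP-loaded KRAS G12C (5 nM) preincubated with compound 20 min at room temperature in Tris pH 7.5 buffer with MgCl2, DTT and BSA. GST-RAF1 RBD (9 nM) then added for 20 min, and SA-Tb (0.25 nM) for 3 h. HTRF 520/495 ratio read; IC50 taken from the dose-response curve.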
# Chain of Recombinant GMPPNP-loaded KRAS G12C (KRAS-G12C(ON), active form) (P01116 1-188 isoform P01116-2 G12C): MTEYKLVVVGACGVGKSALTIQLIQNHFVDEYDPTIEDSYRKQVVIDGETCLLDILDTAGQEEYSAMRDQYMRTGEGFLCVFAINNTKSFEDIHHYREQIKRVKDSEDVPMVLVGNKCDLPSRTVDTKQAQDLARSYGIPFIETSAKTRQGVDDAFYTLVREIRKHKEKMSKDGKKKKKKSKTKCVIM
row,IC50,Structure (SMILES)
1,3.37 µM,"Cc1cc(N)nc(-c2c(Cl)cc3c(N4CCC5C(CCN5C(=O)/C(F)=C/c5nccs5)C4)nc(OC[C@]45CCCN4C[C@H](F)C5)nc3c2F)c1C(F)(F)F (single isomer, unassigned) [Example 26, Isomer 1]"

# Same assay, conditions: GMPPNP-loaded KRAS G12C 5 nM, GST-RAF1 RBD 9 nM, values in nM, read-out: KRASG12C RAF Disruption Assay (IC50)
row,IC50,Structure (SMILES)
1,0.13 µM,CN1CCC[C@H]1COc1nc(N2CCN(C(=O)/C(F)=C/c3cccnn3)[C@@H](CC#N)C2)c2ccc(-c3c(O)cccc3F)c(F)c2n1 [Example 57]
2,0.023 µM,"N#CC[C@H]1CN(c2nc(OC[C@@]34CCCN3C[C@H](F)C4)nc3c(F)c(-c4cc(O)cc5ccccc45)ccc23)CCN1C(=O)/C(F)=C/c1ccccn1 [Example 39, 2-((S)-4-(8-fluoro-2-(((2R,7aS)-2-fluorotetrahydro-1H-pyrrolizin-7a(5H)-yl)methoxy)-7-(3-hydroxynaphthalen-1-yl)quinazolin-4-yl)-1-((Z)-2-fluoro-3-(pyridin-2-yl)acryloyl)piperazin-2-yl)acetonitrile]"
3,1.6 µM,"CN1CCC[C@H]1COc1nc(N2CCN(C(=O)/C(F)=C/c3ccccn3)[C@@H](CC#N)C2)c2ccc(-c3cccc4cccc(C#N)c34)c(F)c2n1 [Example 79, 8-(4-((S)-3-(cyanomethyl)-4-((Z)-2-fluoro-3-(pyridin-2-yl)acryloyl)piperazin-1-yl)-8-fluoro-2-(((S)-1-methylpyrrolidin-2-yl)methoxy)quinazolin-7-yl)-1-naphthonitrile]"
4,0.05 µM,"Cc1ccc2[nH]ncc2c1-c1ccc2c(N3CCN(C(=O)/C(F)=C/c4ccccn4)[C@@H](CC#N)C3)nc(OC[C@@]34CCCN3C[C@H](F)C4)nc2c1F [Example 76, 2-((2S)-4-(8-fluoro-2-(((2R,7aS)-2-fluorotetrahydro-1H-pyrrolizin-7a(5H)-yl)methoxy)-7-(5-methyl-1H-indazol-4-yl)quinazolin-4-yl)-1-((Z)-2-fluoro-3-(pyridin-2-yl)acryloyl)piperazin-2-yl)acetonitrile]"
5,0.04 µM,"C#Cc1cccc2cccc(-c3ccc4c(N(C)[C@@H]5CCN(C(=O)/C(F)=C/c6nccs6)C5)nc(OC[C@@]56CCCN5C[C@H](F)C6)nc4c3F)c12 [Example 82, (Z)-1-((R)-3-((7-(8-ethynylnaphthalen-1-yl)-8-fluoro-2-(((2R,7aS)-2-fluorotetrahydro-1H-pyrrolizin-7a(5H)-yl)methoxy)quinazolin-4-yl)(methyl)amino)pyrrolidin-1-yl)-2-fluoro-3-(thiazol-2-yl)prop-2-en-1-one]"
6,0.45 µM,"Cc1ccc2[nH]ncc2c1-c1ccc2c(N3CCN(C(=O)/C(F)=C/c4ncccn4)[C@@H](CC#N)C3)nc(OC[C@@H]3CCCN3C)nc2c1F [Example 52, 2-((2S)-1-((Z)-2-fluoro-3-(pyrimidin-2-yl)acryloyl)-4-(8-fluoro-7-(5-methyl-1H-indazol-4-yl)-2-(((S)-1-methylpyrrolidin-2-yl)methoxy)quinazolin-4-yl)piperazin-2-yl)acetonitrile]"
7,0.07 µM,Cc1ccc2[nH]ncc2c1-c1ccc2c(N3CCN(C(=O)/C(F)=C/c4cccnn4)[C@@H](CC#N)C3)nc(OC[C@@H]3CCCN3C)nc2c1F [Example 53]
8,0.027 µM,"Cc1cccc(/C=C(\F)C(=O)N2CCN(c3nc(OC[C@@H]4CCCN4C)nc4c(F)c(-c5cc(O)cc6ccccc56)ccc34)C[C@@H]2CC#N)n1 [Example 34, 2-((S)-1-((Z)-2-fluoro-3-(6-methylpyridin-2-yl)acryloyl)-4-(8-fluoro-7-(3-hydroxynaphthalen-1-yl)-2-(((S)-1-methylpyrrolidin-2-yl)methoxy)quinazolin-4-yl)piperazin-2-yl)acetonitrile]"
9,4.7 µM,"CN1CCC[C@H]1COc1nc(N2CCN(C(=O)/C(F)=C/c3ncccn3)[C@@H](CC#N)C2)c2ccc(-c3cc(Cl)ccc3OC(F)(F)F)c(F)c2n1 [Example 67, 2-((S)-4-(7-(5-chloro-2-(trifluoromethoxy)phenyl)-8-fluoro-2-(((S)-1-methylpyrrolidin-2-yl)methoxy)quinazolin-4-yl)-1-((Z)-2-fluoro-3-(pyrimidin-2-yl)acryloyl)piperazin-2-yl)acetonitrile]"
